Source: patent US11613515B2, “Neuro-attenuating ketamine and norketamine compounds, derivatives thereof, and methods” (Amorsa Therapeutics, Inc., priority 2014, dated 2023)
Counter-ions that a name gives are not always drawn.

What was measured:
[1] = estimated, background; cited from earlier work
NMDA receptor = test: Patch clamp electrophysiological functional response, NMDA receptor inhibition; assay type: cell-based; details: cultural hippocampal rat neurons
[2] = fraction of ketamine activity; cited from earlier work
[3] = Metabolic stability in rat liver microsomes; details: NADPH regenerating system, 0 to 60 min
[4] = Pharmacokinetics of deuterated norketamines in rats (tail vein injection); details: 0.8 mg/kg, injection into the tail vein
Procedure: Pharmacokinetics of the deuterated norketamines is studied in rats. […] The terminal half-lives are calculated by fitting the data points using a WinNonLin software package.

[5] = cited from earlier work

What does the source list for `CNC1(c2ccccc2Cl)CCCCC1=O` (racemic) [ketamine, (R,S)-2-(2-chlorophenyl)-2-(methylamino) cyclohexanone]?
elimination half-life [1]: 2 to 3 h; IC50 (NMDA receptor): 2.2 µM

What does the source list for `NC1(c2ccccc2Cl)CCCCC1=O` (racemic) [norketamine, (R,S)-2-(2-chlorophenyl)-2-(amino) cyclohexanone]?
activity as compared with ketamine [2]: roughly one third; IC50 (NMDA receptor): 14.7 µM

With `[2H]C1([2H])CCCC(N)(c2ccccc2Cl)C1=O` (centres unmarked) [compound 11] as the compound, how does the “increase in half-life compared to non-deuterated norketamine” value [3] read?
The value was “about 80%”.

What about the “increase of terminal half-life vs norketamine” value [4] of the same compound?
The value was ~40%.

What about the IC50 (NMDA receptor) of the same compound?
The IC50 was 25.9 µM.

For `CNC1(c2ccccc2Cl)CCCCC1=O` (centres unmarked) [ketamine hydrochloride], which solubility in water [5] is on record?
The solubility in water was “about 200 mg/ml”.
